# Assay results published in paper PMC6299216, “Gain-of-Function Mutations in the Phospholipid Flippase MprF Confer Specific Daptomycin Resistance” (mBio, 2018).
# Ends that are not written are not given here.
# Key:
# [1] = tested on: S. aureus 113 (SA113) mprF mutant expressing T345A-MprF (pRB-T345A); format: cell-based, Staphylococcus aureus; conditions: T345A mutation in MprF on plasmid in SA113 mprF mutant; MIC test strips; 50 mg/liter CaCl2; mean of at least five independent experiments (Fig. 1B)
# From the text: (§1) The common laboratory strain, methicillin-susceptible S. aureus SA113 (ATCC 35556) and its mprF knockout derivative SA113ΔmprF have been described recently ([17]). Point mutations in mprF were introduced by site-directed mutagenesis in Escherichia coli using E. coli/S. aureus shuttle vector pRB474 bearing mprF via the use of a QuikChange kit (Stratagene, La Jolla, CA, USA) (see Table S3 in the supplemental material), as described recently ([20]). Mutated derivatives of mprF were cloned in pRB474mprF and transferred into strain SA113ΔmprF. Expression of the pRB474mprF variants was mediated by the use of constitutive Bacillus subtilis promoter vegII. Plasmids were maintained with 10 μg/ml chloramphenicol in all studies, with the exception of the MIC assays.
# (§2) The MICs of daptomycin, bacitracin, polymyxin B, vancomycin, and oxacillin were determined with MIC test strips from Liofilchem according to the manufacturer’s advice. The MICs of friulimicin B, nisin, and gallidermin were determined by broth microdilution in Mueller-Hinton broth (MHB) in a 24-well plate under shaking conditions. Friulimicin B and daptomycin MICs were determined in the presence of 50 mg/liter CaCl2. Other MICs were determined in the presence of 50 mg/liter CaCl2 when indicated.
# [2] = tested on: S. aureus 113 (SA113) mprF mutant expressing parental (wild-type) MprF (pRBmprF); format: cell-based, Staphylococcus aureus; conditions: parental MprF sequence on plasmid in SA113 mprF mutant; MIC test strips; 50 mg/liter CaCl2; mean of at least five independent experiments (Fig. 1B)
# From the text: as §1, §2
# [3] = tested on: S. aureus 113 (SA113) mprF mutant expressing V351E-MprF (pRB-V351E); format: cell-based, Staphylococcus aureus; conditions: V351E mutation in MprF on plasmid in SA113 mprF mutant; MIC test strips; 50 mg/liter CaCl2; mean of at least five independent experiments (Fig. 1B)
# From the text: as §1, §2
# [4] = tested on: S. aureus with chromosomal deletion of MprF; conditions: cited from earlier work
# From the text: Daptomycin is the first approved drug of a new class of calcium-dependent lipopeptide antibiotics, whose entire mode of action is still not fully understood ([6], [8]). It interacts with phosphatidylglycerol (PG) and interferes with bacterial fluid membrane microdomains, which leads to inhibition of cell wall synthesis ([9]). However, it is unclear if its activity requires a specific docking molecule in the membrane ([9], [10]). How point mutations in different S. aureus proteins contribute to or cause DAP-R remains equally elusive ([6]). Several proteins involved in the synthesis, regulation, ...
# [5] = tested on: S. aureus 113 (SA113) mprF mutant expressing MprF with S295L, P314L, S337L, I420N or L826F; assay: MIC, MIC test strips (Liofilchem); format: cell-based, Staphylococcus aureus; conditions: mutations S295L, I420N and L826F, 50 mg/liter CaCl2 (Fig. 1B)
# From the text: as §1, §2
# [6] = tested on: S. aureus ΔmprF mutant with or without functional MprF; assay: MIC, MIC test strips: mprF deletion mutant versus functional MprF; format: cell-based, Staphylococcus aureus; conditions: daptomycin with 50 mg/liter CaCl2, three independent experiments (Fig. 4A)
# From the text: as §1, §2
# [7] = tested on: S. aureus ΔmprF mutant expressing E206A-T345A MprF (pRB-E206A-T345A); assay: MIC, MIC test strips, flippase-inactivated MprF; format: cell-based, Staphylococcus aureus
# From the text: as §1, §2
# [8] = tested on: S. aureus ΔmprF mutant expressing D71A-T345A MprF (pRB-D71A-T345A); assay: MIC, MIC test strips, flippase-inactivated MprF; format: cell-based, Staphylococcus aureus
# From the text: as §1, §2
# [9] = tested on: S. aureus ΔmprF mutant expressing R112A-T345A MprF (pRB-R112A-T345A); assay: MIC, MIC test strips, flippase-inactivated MprF; format: cell-based, Staphylococcus aureus
# From the text: as §1, §2
# [10] = tested on: S. aureus ΔmprF mutant with or without functional MprF; assay: MIC, broth microdilution: mprF deletion mutant versus functional MprF; format: cell-based, Staphylococcus aureus; conditions: broth microdilution in Mueller-Hinton broth, 24-well plate, shaking; friulimicin B with 50 mg/liter CaCl2; three independent experiments (Fig. 4A)
# From the text: as §1, §2
# [11] = tested on: S. aureus ΔmprF mutant expressing T345A-MprF; assay: MIC, broth microdilution; format: cell-based, Staphylococcus aureus; conditions: T345A mutation; broth microdilution in MHB; 50 mg/liter CaCl2; three independent experiments (Fig. 4A)
# From the text: as §1, §2
# [12] = tested on: S. aureus ΔmprF mutant expressing V351E-MprF; assay: MIC, broth microdilution; format: cell-based, Staphylococcus aureus; conditions: V351E mutation; broth microdilution in MHB; 50 mg/liter CaCl2; three independent experiments (Fig. 4A)
# From the text: as §1, §2
molecule,measurement,setting,value
CCCCCCCCCC(=O)N[C@@H](Cc1c[nH]c2ccccc12)C(=O)N[C@H](CC(N)=O)C(=O)N[C@@H](CC(=O)O)C(=O)N[C@@H]1C(=O)NCC(=O)N[C@@H](CCCN)C(=O)N[C@@H](CC(=O)O)C(=O)N[C@H](C)C(=O)N[C@@H](CC(=O)O)C(=O)NCC(=O)N[C@H](CO)C(=O)N[C@@H]([C@H](C)CC(=O)O)C(=O)N[C@@H](CC(=O)c2ccccc2N)C(=O)O[C@@H]1C [daptomycin],MIC,[1],3 µg/mL
same,MIC,[2],1 µg/mL
same,MIC,[3],3 µg/mL
same,susceptibility after chromosomal deletion of MprF,[4],hypersusceptibility
same,daptomycin susceptibility compared to the parental MprF sequence,[5],did not alter daptomycin susceptibility
same,ability to inhibit S. aureus growth (MIC) with functional MprF versus mprF deletion mutant,[6],reduced in the presence of a functional MprF protein
same,ability of T345A to increase the MIC of daptomycin,"[7]; T345A in combination with R206A (so in the source), 50 mg/liter CaCl2, three independent experiments (Fig. 5B)",not able to increase the daptomycin MIC
same,ability of T345A to increase the MIC of daptomycin,"[8]; T345A in combination with D71A, 50 mg/liter CaCl2, three independent experiments (Fig. 5B)",not able to increase the daptomycin MIC
same,ability of T345A to increase the MIC of daptomycin,"[9]; T345A in combination with R112A, 50 mg/liter CaCl2, three independent experiments (Fig. 5B)",only slightly increased MIC
Cc1onc(-c2ccccc2)c1C(=O)N[C@@H]1C(=O)N2[C@@H]1SC(C)(C)[C@@H]2C(=O)O [oxacillin],ability to inhibit S. aureus growth (MIC) with functional MprF versus mprF deletion mutant,[6],not affected by MprF
bacitracin,ability to inhibit S. aureus growth (MIC) with functional MprF versus mprF deletion mutant,[6],reduced in the presence of a functional MprF protein
same,"MIC of bacitracin as indicator of flippase activity, compared to strains expressing a functional MprF","[7]; T345A with flippase-inactivating mutation E206A, three independent experiments (Fig. 5A)",hypersusceptible
same,"MIC of bacitracin as indicator of flippase activity, compared to strains expressing a functional MprF","[8]; T345A with flippase-inactivating mutation D71A, three independent experiments (Fig. 5A)",hypersusceptible
same,"MIC of bacitracin as indicator of flippase activity, compared to strains expressing a functional MprF","[9]; T345A with flippase-inactivating mutation R112A, three independent experiments (Fig. 5A)",hypersusceptible
friulimicin B,ability to inhibit S. aureus growth (MIC) with functional MprF versus mprF deletion mutant,[10],reduced in the presence of a functional MprF protein
same,cross-resistance (MIC versus wild-type MprF),[11],cross-resistance
same,cross-resistance (MIC versus wild-type MprF),[12],cross-resistance
"gallidermin (IASKFLCTPGCAKTGSFNSYCC; also: lantibiotic: thioether rings and dehydro residues, places not given here; UniProt P21838 31-52, looked up)",ability to inhibit S. aureus growth (MIC) with functional MprF versus mprF deletion mutant,[10],reduced in the presence of a functional MprF protein
"nisin (ITSISLCTPGCKTGALMGCNMKTATCHCSIHVSK; also: lantibiotic: thioether rings and dehydro residues, places not given here; UniProt P13068 24-57, looked up)",ability to inhibit S. aureus growth (MIC) with functional MprF versus mprF deletion mutant,[10],reduced in the presence of a functional MprF protein
polymyxin B,ability to inhibit S. aureus growth (MIC) with functional MprF versus mprF deletion mutant,[6],reduced in the presence of a functional MprF protein
vancomycin,ability to inhibit S. aureus growth (MIC) with functional MprF versus mprF deletion mutant,[6],reduced in the presence of a functional MprF protein
